Measured values published in patent publication US20080279907A1, “Antimicrobial medical devices and methods for making and using same” (Ash Access Technology, Inc., priority 2007, published 2008).
Several values for one entry are separate records, joined by “and”; a condition that tells them apart may be missing. Identical values can stand only once.

Columns and labels:
Assay type in all cases: physicochemical
[1] = Perfusion of parabens and methylene blue through polycarbonate membrane in perfusion chamber (HPLC of lower chamber); conditions: for perfusion of methylene blue through membrane without activation: only 1,2-propanediol solution, absence of Citrate and activation by AA, after 4.5 days (Treatments 1 and 2)
Experimental: An experiment was performed to determine a method for perfusing methylene blue, methyl paraben, and propyl paraben through a polycarbonate membrane with causing only minimal changes to the strength and elasticity of the membrane. In FIG. 12, there is illustrated a perfusion chamber system 50 used during the experiment. System 50 includes an upper chamber 51 and a lower chamber 52 separated by a polycarbonate membrane 53 having a thickness of 0.60 mm. The upper and lower chambers 51, 52 are generally structured to hold 10.5 cm^3 or 10.5 ml of fluid. The upper chamber 51 was connected to a peristaltic pump (not shown) and the lower chamber 52 was filled with distilled water. First and second solutions, respectively including the parabens and the methylene blue, were prepared in accordance with the method set forth in EXAMPLE 6 above. As best seen in Tables 6 and 7 below, the solutions were connected to the pump and passed through the first chamber 51 at a constant rate at 37° C. over various lengths of time.
Table 6 includes data obtained from HPLC analysis comparing the methyl paraben, propyl paraben, and methylene blue concentrations in the lower chamber 52. The parameters for the methyl and propyl paraben and methylene blue treatments are indicated in the left hand columns.

[2] = Total methylene blue loaded onto and released from polycarbonate discs and catheters, desorbed in MeOH (0.1% TFA), UV 662 nm
Experimental: An experiment was performed in order to determine the total amount of methylene blue that was loaded onto a polycarbonate disc in comparison to a polycarbonate catheter. The discs were 1.27 cm or 0.5 inches in diameter and included a surface area of 2.53 cm^2 and a thickness of 0.60 mm. The catheter pieces were 1″ long and included a surface area of 4.64 cm^2 and a thickness of 0.51 mm. A 160 ml solution of 0.24 M sodium citrate was prepared into which 0.1% or […] of methylene blue was added. Then, 2%, or 3.2 g of ascorbic acid, was added to the solution and mixed for 1-2 minutes and 10 ml of the solution was placed into 25 ml flasks. The discs and catheter pieces were rinsed and placed into the 25 ml flasks of solution and placed on a shaker at 220 rpm at 37° C. for three hours. The catheter pieces and discs were removed, rinsed with distilled water, and dried. The catheter pieces and discs were desorbed in 20 ml of MeOH (w/0.1% TFA) and placed on the shaker until the membranes appeared whitish in color. Appropriate dilutions were made and the UV absorbance was measured at 662 nm. The methylene blue concentration was calculated based on a standard curve generated in a similar manner. The results are set forth below in Table 4 and 5.

[3] = Desorption of methylene blue from impregnated catheter pieces in 0.9% saline (HPLC)
Experimental: In another form of the present application, one inch polycarbonate catheter pieces including a surface area of about 4.64 cm^2 were impregnated with methylene blue. A solution of 0.24 M sodium citrate buffer pH 4.5 was prepared with 100 mg % methylene blue activated by 2% L-ascorbic acid immediately beforehand. Catheter pieces were placed in flasks containing the solution and the flasks were placed on a shaker at 220 rpm and 27° C. for 3 hours.
Desorption analysis of the methylene blue impregnated catheter pieces was performed in a 0.9% solution of saline. The total amount of methylene blue released from the catheter pieces was calculated using HPLC analysis performed with a Waters Alliance 2690 including a 996 Photodiode Array Detector according to conditions in Example 4. The results of the HPLC analysis corresponding to the desorption of methylene blue from the methylene blue impregnated polymeric material are set forth in the graph of FIG. 10.
One inch polycarbonate catheter pieces including a surface area of about 4.64 cm^2 were impregnated with methyl paraben and propyl paraben. A solution of 100% 1,2-propanediol was prepared with 9% methyl paraben and 2% propyl paraben. Pairs of the one inch catheter pieces were placed into three 25 ml flasks including 10 ml of parabens solution. The flasks were placed on a shaker at 220 rpm and 27° C. for two, four, or nine hours. At the end of each time period, the catheter pieces were removed, rinsed with distilled water, and dried.
The catheter pieces were then impregnated with methylene blue. A solution of 0.24 M sodium citrate buffer with a pH of 4.5 was prepared with 100 mg % methylene blue activated by 2% L-ascorbic acid immediately beforehand. Catheter pieces were placed in flasks containing the solution and the flasks were placed on a shaker at 220 rpm and 27° C. for 3 hours. Desorption analysis of the parabens and methylene blue impregnated catheter pieces was performed in a 0.9% solution of saline according to the method described earlier.

[4] = Leaching of methylene blue from treated catheter into normal saline replaced monthly; conditions: catheter treated with only methylene blue
Description: When the saline is replaced with fresh saline, exactly the same intense blue color developed in the fresh saline solution during the second month. This process of replacing the saline solution can be continued, that is, replacing the saline solution with fresh solution monthly, for at least nine months. The color resulting during the sixth month in the fresh saline solution is a light blue. If the process is continued for an additional 3 months or up to a total of 9 months, the resulting fresh saline solution is light blue in color, but the release of the dye continues.

[5] = No Parabens, MB treatment 3 hrs 0.24 M Citrate buffer, 4.5 pH
[6] = paraben treatment 2 hrs- 100% PG, 9% MP, 2% PP, MB treatment 3 hrs
[7] = paraben treatment 4 hrs- 100% PG, 9% MP, 2% PP, MB treatment 3 hrs
[8] = paraben treatment 9 hrs- 100% PG, 9% MP, 2% PP, MB treatment 3 hrs
[9] = flat polycarbonate disc (discs 1-4), NO Parabens, MB treatment 3 hrs 0.24M Citrate Buffer, 4.5 pH, 100 mg % MB, 2% AA

time to perfuse through the membrane ([1]; activated MB solution (citrate, AA), 0.60 mm polycarbonate membrane): ~10 days | concentration of methylene blue in lower chamber, in words ([1]; after 10 days of flow by activated solution): not significant | Total mg MB in 10.5 mL lower chamber ([1]; lower chamber, parabens ~9 hrs at 37 C., then activated MB sol'n ~10 days): 0.0105 mg | MB conc ([1]; lower chamber, parabens ~9 hrs at 37 C., then activated MB sol'n ~10 days, changed every 1 day): 0.001 mg/mL | perfusion of methylene blue through membrane without activation ([1]; listed as Methylene blue): would not perfuse | perfusion of methylene blue through membrane without activation ([1]; listed as methylene blue): minimal | factor by which flat discs exceed catheters in total sorption and desorption of methylene blue per cm^2 ([2]; Tables 4 and 5, no parabens): ~6.8 | Average ug/cm^2 MB released ([2]; average of flat discs 1-4, NO Parabens, MB treatment 3 hrs): 1942.8 ug/cm^2 | % MB released from catheter in saline desorption/total released in MeOH (0.1% TFA) [2, 5]: 58.8% | mg released based on 1″ of catheter [2, 5]: 1.32 mg | mg released per cm^2 of catheter [2, 5]: 0.284 mg per cm^2 | ug released per cm^2 of catheter [2, 5]: 284.5 ug per cm^2 | % MB released from catheter in saline desorption/total released in MeOH (0.1% TFA) [2, 6]: 73.2% | mg released based on 1″ of catheter [2, 6]: 1.65 mg | mg released per cm^2 of catheter [2, 6]: 0.356 mg per cm^2 | ug released per cm^2 of catheter [2, 6]: 356.3 ug per cm^2 | % MB released from catheter in saline desorption/total released in MeOH (0.1% TFA) [2, 7]: 65.5% | mg released based on 1″ of catheter [2, 7]: 1.71 mg | mg released per cm^2 of catheter [2, 7]: 0.368 mg per cm^2 | ug released per cm^2 of catheter [2, 7]: 368.5 ug per cm^2 | % MB released from catheter in saline desorption/total released in MeOH (0.1% TFA) [2, 8]: 76.4% | mg released based on 1″ of catheter [2, 8]: 1.78 mg | mg released per cm^2 of catheter [2, 8]: 0.384 mg per cm^2 | ug released per cm^2 of catheter [2, 8]: 383.6 ug per cm^2 | period of significant release of methylene blue ([3]; catheters preincubated with parabens, 0.9% saline): 10 days | methylene blue release during the last 20 days of the experiment ([3]; catheters treated only with methylene blue, 0.9% saline (FIG. 10)): negligible release | duration of release of the dye from treated catheter [4]: ≥ 9 months
Structure (SMILES): CN(C)c1ccc2nc3ccc(=[N+](C)C)cc-3sc2c1 [MB, methylene blue]
Amt MB (mg) released per square cm (mg/2.53 cm^2) on disc [2, 9]: 1.95 mg per square cm and 1.92 mg per square cm and 1.93 mg per square cm and 1.96 mg per square cm | Average amount (mg) released per disc [2, 9]: 4.94 mg and 4.87 mg and 4.88 mg and 4.97 mg | ug/cm^2 MB released, flat disc [2, 9]: 1954.1 ug/cm^2 and 1923.6 ug/cm^2 and 1929.0 ug/cm^2 and 1964.3 ug/cm^2 | methylene blue release at the conclusion of the 81st day ([3]; catheters pretreated with parabens, 0.9% saline (FIG. 11)): a small amount of methylene blue still being released
